Data taken from US20060079453A1, “Hla binding peptides and their uses” (priority 2002, published 2006).
Like-named read-outs stand apart in the source and are kept apart here. No end group written: not given here.

Experiments:
Experiment in all cases: biochemical
Assay type in all cases: binding
HLA-B*1801 = HLA-B*1801 (Homo sapiens, UniProt P01889, A329T/A93T/A95T/C349S/D201E/D54G/D98Y/E176V/E187T/E204Q/E69T/K202T/Q94N/R155S/R180L/S121R/V306I/Y140S/Y195H/Y33H/Y91S)
HLA-B*4403 = HLA-B*4403 (Homo sapiens, UniProt P01889, A223V/A65T/A93T/A95T/D201E/D98Y/E176V/E187L/E204Q/E69K/G107R/H137Y/K202T/L105A/L119I/N104T/N87E/Q56L/Q94N/R106L/R155S/R180L/S101N/S121R/S35A/S48T/T118I/V36M/W191S/Y140D/Y91S)
HLA-B*4002 = HLA-B*4002 (Homo sapiens, UniProt P01889, A65T/A93T/A95T/D138N/D201E/D98Y/E176V/E204Q/E69K/K202T/N87E/Q56L/Q94N/R180L/S48T/Y33H/Y91S)
HLA-B*4402 = HLA-B*4402 (Homo sapiens, UniProt P01889, A223V/A65T/A93T/A95T/D201E/D98Y/E176V/E187L/E204Q/E69K/G107R/H137Y/K202T/L105A/L119I/N104T/N87E/Q56L/Q94N/R106L/R155S/R180D/S101N/S121R/S35A/S48T/T118I/V36M/W191S/Y140D/Y91S)
HLA-B*4501 = HLA-B*4501 (Homo sapiens, UniProt P01889, A329T/A65T/A93T/A95T/C349S/D138N/D201E/D98Y/E176V/E187L/E204Q/E69K/H137Y/K202T/L119W/N87E/Q56L/Q94N/R155S/R180D/S121R/S35A/S48T/V127L/V306I/V36M/W191S/Y140L/Y33H/Y91S)
HLA-B*4001 = HLA-B*4001 (Homo sapiens, UniProt P01889, A65T/A93T/A95T/D138N/D98Y/E176V/E69K/N87E/Q56L/Q94N/R180L/S121R/S35A/S48T/T167S/V36M/W171L/Y33H/Y91S)

Sequence	IC50 (HLA-B*1801; B*1801) [nM]	IC50 (HLA-B*4403; B*4403) [nM]	IC50 (HLA-B*4402; B*4402) [nM]	IC50 (HLA-B*4501; B*4501) [nM]	IC50 (HLA-B*1801) [nM]	IC50 (HLA-B*4403) [nM]	IC50 (HLA-B*4001) [nM]	IC50 (HLA-B*4402) [nM]	IC50 (HLA-B*4501) [nM]	IC50 (HLA-B*4002) [nM]	other results
GELSYLNV	> 24800	23700	19000	784							IC50 (HLA-B*4002; B*4002): 100 nM
ATNLWVTVY											IC50 (HLA-B*1801; read-out: B*1801): 17600 nM; IC50 (HLA-B*4403; read-out: B*4403): > 43000 nM; IC50 (HLA-B*4001; read-out: B*4001): 487 nM; IC50 (HLA-B*4002; read-out: B*4002): > 155000 nM; IC50 (HLA-B*4501; read-out: B*4501): > 49000 nM
AENLKVTVY					138	487	7750	253	9620		
AENLWVNVY						76		159	266		
SEAIYTFQF	5.7	20	4.8	293							IC50 (HLA-B*4001; B*4001): 967 nM
AENLWTTVY						50	246	51			
AEMGKGSFKY	1620	90		305							IC50 (HLA-B*4001; B*4001): 6430 nM; IC50 (HLA-B*4002; B*4002): 3820 nM
AENLWVTVR					33000	1470			233	1740	
AENLWNTVY					336	81	1340	66		957	
AEDLWVTVY	354	469	2330	1840							IC50 (HLA-B*4002; B*4002): 3520 nM
AENLYVTVF		47	39	69							IC50 (HLA-B*4001; B*4001): 17 nM; IC50 (HLA-B*4002; B*4002): 3.1 nM
AENPWVTVY					27	53		18		224	
AETFYVDGA	> 6710	6920	> 21200	38							IC50 (HLA-B*4001; B*4001): 21600 nM
AENLWVTVW					22600	324	1300		204		
AETLWVTVY					199	221		501	774	198	
SEAPKYAIL	2260	2260	762	479							IC50 (HLA-B*4002; B*4002): 7.8 nM
AENLWVTPY					41	44	274	127	122		
AEGIVTGQY	7180	12	255	418							IC50 (HLA-B*4001; B*4001): 6460 nM
AENLWVTVC					178000	2270		5590	146	1420	
KEKGGLDGLI	> 22800	3630	14700	9990							IC50 (HLA-B*4002; B*4002): 233 nM
AEMGKFKFSY	1520	28	146	283							IC50 (HLA-B*4002; B*4002): 622 nM
AENLWFTVY					360	62	699		90	668	

Sequence	IC50 (HLA-B*1801; B*1801) [nM]	IC50 (HLA-B*4403; B*4403) [nM]	IC50 (HLA-B*4402; B*4402) [nM]	IC50 (HLA-B*4501; B*4501) [nM]	IC50 (HLA-B*1801) [nM]	IC50 (HLA-B*4403) [nM]	IC50 (HLA-B*4001) [nM]	IC50 (HLA-B*4402) [nM]	IC50 (HLA-B*4501) [nM]	IC50 (HLA-B*4002) [nM]	other results
AENLWVTVQ					49600	188		1220	100	85	
AENDWVTVY					324	165	954	96			
AENTWVTVY					213	166	1450	386	442		
AEVLWVTVY						390	1550	1520		436	
AENLWVFVY						310	857	348			
AENLDVTVY						340	220	673		12100	
SEAIHTFQY	25	16	18								IC50 (HLA-B*4001; B*4001): 2900 nM; IC50 (HLA-B*4002; B*4002): 1800 nM
GEFGGYGSV		534	2340	40							IC50 (HLA-B*4002; B*4002): 6.4 nM
AENLWDTVY					775	68	1140			2090	
AENLWVDVY					415	92	700	334		3440	
GEISPYPSL					19400	293	24			1.8	
AENLWVTVI					11200	88	14		54	7.3	
AENLVVTVY					62	203	876		718	1340	
AEMGKFKYSF	155	31	18								IC50 (HLA-B*4002; B*4002): 3.8 nM
KEKGGLDGL	> 22800	> 10500	> 81400	9930							IC50 (HLA-B*4001; B*4001): 55 nM
NENLWVTVY					38	224	> 72700	453		11800	
YENLWVTVY					29	369		640	10700	324	
AENLWLTVY					666	226	1700	647		884	
AENLTVTVY						208	689	327	793		
QEILDLWV	> 22800	5920	> 81400	5500							IC50 (HLA-B*4002; B*4002): 1720 nM
AENLWVTVL					6200	208	14	68		13	
TEPAAVGVGAV	> 8120	459		8240							IC50 (HLA-B*4001; B*4001): 930 nM
